According to patent US20040266849A1, “Therapeutic compounds for treating dyslipidemic conditions” (priority 2004, published 2004):

Tested on: ABCA1 mRNA
Test: Induction of ABCA1 mRNA levels in human primary macrophages
Assay type: cell-based
Settings: Primary macrophage, 18 h + 6 h, vs DMSO control, read-out: Fold Induction of ABCA1 mRNA (Mean ± SEM)
Protocol: Induction of ABCA1 mRNA levels
Human Primary Macrophages were used to test the ability of LXR ligands to induce the expression of ABCA1 mRNA. The collection and purification of monocytes and their subsequent differentiation into macrophages by culturing in Teflon jars for 7-9 days was performed according to Wright and Silverstein J. Exp. Med. V156, October 1982 pp. 1149-1164. Cells were harvested from the Teflon jars and seeded into appropriate vessels in RPMI1640 plus 12% human serum and antibiotics. Cells were allowed to recover overnight before treatment. Treatment was for 18 hours with the described compounds, followed by a re-application of fresh compounds for an additional 6 hours in DMEM minus Phenol Red with 10% charcoal stripped FCS. The cells were harvested and total RNA prepared using the phenol/guanidine isothiocyanate method as supplied and described by Molecular Research Center, Inc. (TRI REAGENT® Cat. No. TR 118). ABCA1 mRNA levels in the total RNA were measured using the TaqMan® mRNA quantitation system, following protocols published by the manufacturer (Perkin-Elmer). The oligonucleotide PCR primers used to detect ABCA1 were: […]
The oligonucleotide probe used was:
ABCA1 mRNA levels in each sample were normalized to the mRNA levels for the 23 kDa highly basic protein. The oligonucleotide PCR primers used to detect the 23 kDa highly basic protein were: […]

CC(C)CC[C@@H](O)[C@@H](C)[C@H]1CC[C@H]2[C@@H]3CC=C4C[C@@H](O)CC[C@]4(C)[C@H]3CC[C@]12C [22-(R)-hydroxycholesterol, reference compound]
fold induction at 10 µM: 8 ± 1.37

CCCc1c(OCCCN(C)C(=O)CC(C)(C)CC(=O)O)ccc2c(C(F)(F)F)noc12 [Compound (3d)]
fold induction at 0.1 µM (0.1 μM): 0.9 ± 0.2
fold induction at 1 µM (1.0 μM): 3.3 ± 0.3
fold induction at 10 µM: 13.6 ± 1.1
